Test results as given in patent US9510592B2, “Pesticidal compositions and processes related thereto” (Dow AgroSciences LLC, priority 2012, dated 2016).

system: Beet Armyworm (Spodoptera exigua); experiment: Bioassay on Beet Armyworm (BAW), 128-well diet tray assay; format: in vivo; conditions: percent mortality of second instar larvae, 50 μg/cm^2 on artificial diet, five to seven days, 25° C.; Table 3
Description: Certain molecules disclosed in this document were tested against BAW and CEW and CL using procedures described in the following examples. In the reporting of the results, the “BAW & CEW & CL Rating Table” was used (See Table Section).
Bioassays on BAW (Spodoptera exigua)
Bioassays on BAW were conducted using a 128-well diet tray assay. one to five second instar BAW larvae were placed in each well (3 mL) of the diet tray that had been previously filled with 1 mL of artificial diet to which 50 μg/cm^2 of the test compound (dissolved in 50 μL of 90:10 acetone-water mixture) had been applied (to each of eight wells) and then allowed to dry. Trays were covered with a clear self-adhesive cover, and held at 25° C., 14:10 light-dark for five to seven days. Percent mortality was recorded for the larvae in each well; activity in the eight wells was then averaged. The results are indicated in the table entitled “Table 3: Assay Results” (See Table Section).

Row | SMILES | BAW Rating
1 | Cc1cc(/C=C/C(c2cc(Cl)cc(Cl)c2)C(F)(F)F)ccc1C(=O)N(C)Cc1ccc(Cl)nc1 (centres unmarked) [AC117] | A (50-100)
2 | Cc1cc(/C=C/C(c2cc(Cl)cc(Cl)c2)C(F)(F)F)cc(C#N)c1-n1cncn1 (centres unmarked) [DC44] | A (50-100)
3 | Cc1cc(/C=C/C(c2cc(Cl)cc(Cl)c2)C(F)(F)F)ccc1C(=O)NCc1ccoc1 (centres unmarked) [AC20] | A (50-100)
4 | O=C(NC1CSC1)c1ccc(/C=C/C(c2cc(Cl)cc(Cl)c2)C(F)(F)F)cc1F (centres unmarked) [AC61] | A (50-100)
5 | FC(F)(F)C(/C=C/c1ccc(-n2cncn2)cc1)c1ccccc1 (centres unmarked) [DC3] | B (More than 0-Less than 50)
6 | Cc1cc(/C=C/C(c2cc(Cl)cc(Cl)c2)C(F)(F)F)ccc1C(=O)NCC(=O)N(C)CC(F)(F)F (centres unmarked) [AC51] | A (50-100)
7 | Cc1cc(/C=C/C(c2cc(Cl)c(Cl)c(Cl)c2)C(F)(F)F)ccc1C(=O)NC(C)(C)c1ccccn1 (centres unmarked) [AC27] | A (50-100)
8 | COC(/C=C/c1ccc(-n2cncn2)cc1)(c1cc(Cl)cc(Cl)c1)C(F)(F)F (centres unmarked) [DC70, (E)-1-(4-(3-(3,5-Dichlorophenyl)-4,4,4-trifluoro-3-methoxybut-1-en-1-yl)phenyl)-1H-1,2,4-triazole] | A (50-100)
9 | N#Cc1cc(/C=C/C(c2cc(Cl)cc(C(F)(F)F)c2)C(F)(F)F)ccc1-n1cncn1 (centres unmarked) [DC33] | A (50-100)
10 | O=C(CC(F)(F)F)NCc1ccc(/C=C/C(c2cc(Cl)c(Cl)c(Cl)c2)C(F)(F)F)cc1 (centres unmarked) [CC6] | A (50-100)
11 | O=C(CC(F)(F)F)NC1CCCc2cc(/C=C/C(c3cc(Cl)c(Cl)c(Cl)c3)C(F)(F)F)ccc21 (centres unmarked) [BC5] | A (50-100)
12 | O=C(CNC(=O)c1ccc(/C=C\C(c2cc(Cl)c(Cl)c(Cl)c2)C(F)(F)F)cc1Br)NCC(F)(F)F (centres unmarked) [AC95, (Z)-2-Bromo-N-(2-oxo-2-((2,2,2-trifluoroethyl)amino)ethyl)-4-(4,4,4-trifluoro-3-(3,4,5-trichlorophenyl)but-1-en-1-yl)benzamide] | A (50-100)
13 | O=C(NOc1ccc(/C=C/C(c2cc(Cl)c(Cl)c(Cl)c2)C(F)(F)F)cc1)C1CC1 (centres unmarked) [CC52, (E)-N-(4-(4,4,4-Trifluoro-3-(3,4,5-trichlorophenyl)but-1-en-1-yl)phenoxy)cyclopropanecarboxamide] | A (50-100)
14 | CCC(=O)NCc1ccc(/C=C/C(c2cc(Cl)cc(Cl)c2)C(F)(F)F)cc1 (centres unmarked) [CC4] | A (50-100)
15 | COc1cc(/C=C/C(c2cc(Cl)c(F)c(Cl)c2)C(F)(F)F)ccc1C(=O)NC1CSC1 (centres unmarked) [AC71] | A (50-100)
16 | O=C(NCc1ccc(/C=C/C(c2cc(Cl)c(Cl)c(Cl)c2)C(F)(F)F)cc1Cl)N1CCOCC1 (centres unmarked) [CC34] | A (50-100)
17 | O=C(NCc1ccc(C(F)(F)F)nc1)c1ccc(/C=C/C(c2cc(Cl)c(Cl)c(Cl)c2)C(F)(F)F)cc1Br (centres unmarked) [AC75] | A (50-100)
18 | Cc1cc(/C=C/C(c2cc(Cl)cc(Cl)c2)C(F)(F)F)ccc1C(=O)NC(C)(C)c1ccccn1 (centres unmarked) [AC16] | A (50-100)
19 | Cc1cc(/C=C/C(c2cc(Cl)cc(Cl)c2)C(F)(F)F)ccc1C(=O)NCc1ccc(Cl)nc1 (centres unmarked) [AC7] | A (50-100)
20 | FC(F)(F)C(/C=C/c1ccc(CNC(=S)C2CC2)c(Cl)c1)c1cc(Cl)c(Cl)c(Cl)c1 (centres unmarked) [CC20] | A (50-100)
21 | CSCCC(=O)NCc1ccc(/C=C/C(c2cc(Cl)c(Cl)c(Cl)c2)C(F)(F)F)cc1Cl (centres unmarked) [CC19] | A (50-100)
22 | C=CCNC(=S)NCc1ccc(/C=C/C(c2cc(Cl)c(Cl)c(Cl)c2)C(F)(F)F)cc1Cl (centres unmarked) [CC38] | A (50-100)

Row | SMILES | BAW Rating
23 | O=C(CC(F)(F)F)NCc1ccc(/C=C/C(c2cc(Cl)c(Cl)c(Cl)c2)C(F)(F)F)cc1Br (centres unmarked) [CC25] | A (50-100)
24 | O=C(NCc1ccc(/C=C/C(c2cc(Cl)cc(Cl)c2)C(F)(F)F)cc1C(F)(F)F)C1CC1 (centres unmarked) [CC21] | A (50-100)
25 | N#Cc1cc(/C=C/C(c2cc(Cl)cc(Cl)c2)C(F)(F)F)ccc1-n1cnc(N)n1 (centres unmarked) [DC38] | A (50-100)
26 | C/C(=C\C(c1cc(Cl)cc(Cl)c1)C(F)(F)F)c1ccc(-n2cncn2)cc1 (centres unmarked) [DC68, (E)-1-(4-(4-(3,5-Dichlorophenyl)-5,5,5-trifluoropent-2-en-2-yl)phenyl)-1H-1,2,4-triazole] | A (50-100)
27 | CNc1cc(/C=C/C(c2cc(Cl)cc(Cl)c2)C(F)(F)F)ccc1-n1cncn1 (centres unmarked) [DC57, (E)-5-(3-(3,5-Dichlorophenyl)-4,4,4-trifluorobut-1-en-1-yl)-N-methyl-2-(1H-1,2,4-triazol-1-yl)aniline] | A (50-100)
28 | O=C(NCc1ccc(Cl)nc1)c1ccc(/C=C/C(c2cc(Cl)c(Cl)c(Cl)c2)C(F)(F)F)cc1Br (centres unmarked) [AC31] | A (50-100)
29 | O=C(NC1CSC1)c1ccc(/C=C/C(c2cc(Cl)c(Cl)c(Cl)c2)C(F)(F)F)cc1C(F)(F)F (centres unmarked) [AC34] | A (50-100)
30 | O=C(CC(F)(F)F)NCc1ccc(/C=C\C(c2cc(Cl)c(Cl)c(Cl)c2)C(F)(F)F)cc1 (centres unmarked) [CC54, (Z)-3,3,3-Trifluoro-N-(4-(4,4,4-trifluoro-3-(3,4,5-trichlorophenyl)but-1-en-1-yl)benzyl)propanamide] | A (50-100)
31 | O=C(NC1CS(=O)(=O)C1)c1ccc(/C=C/C(c2cc(Cl)c(Cl)c(Cl)c2)C(F)(F)F)cc1C(F)(F)F (centres unmarked) [AC35] | A (50-100)
32 | N#Cc1cc(/C=C/C(c2cc(Cl)c(Cl)c(Cl)c2)C(F)(F)F)ccc1-n1cnc(NC(=O)C2CC2)n1 (centres unmarked) [DC43, (E)-N-(1-(2-Cyano-4-(4,4,4-trifluoro-3-(3,4,5-trichlorophenyl)but-1-en-1-yl)phenyl)-1H-1,2,4-triazol-3-yl)cyclopropanecarboxamide] | A (50-100)
33 | O=C(NC1CSC1)c1ccc(/C=C/C(c2cc(Cl)c(F)c(Cl)c2)C(F)(F)F)cc1F (centres unmarked) [AC67] | A (50-100)
34 | N#Cc1cc(/C=C/C(c2cc(Cl)cc(Cl)c2)C(F)(F)F)ccc1-n1cnc([N+](=O)[O-])n1 (centres unmarked) [DC37] | A (50-100)
35 | Cc1cc(/C=C/C(c2cc(Cl)cc(Cl)c2)C(F)(F)F)ccc1C(=O)NCC(=O)NC1CSC1 (centres unmarked) [AC41] | A (50-100)
36 | O=C(NC1CCc2cc(/C=C/C(c3cc(Cl)c(Cl)c(Cl)c3)C(F)(F)F)ccc21)C1CC1 (centres unmarked) [BC6] | A (50-100)
37 | CC(C)(C)OC(=O)CNC(=O)c1ccc(/C=C/C(c2cc(Cl)c(Cl)c(Cl)c2)C(F)(F)F)cc1Br (centres unmarked) [AC58] | A (50-100)
38 | CCOC(=O)c1cc(/C=C/C(c2cc(Cl)cc(Cl)c2)C(F)(F)F)ccc1-n1cncn1 (centres unmarked) [DC60] | A (50-100)
39 | N#Cc1cc(/C=C/C(c2cc(Cl)c(F)c(Cl)c2)C(F)(F)F)ccc1-n1cncn1 (centres unmarked) [DC35] | A (50-100)
40 | O=C(Cc1ccc(Cl)nc1)NC1CCc2cc(/C=C/C(c3cc(Cl)c(F)c(Cl)c3)C(F)(F)F)ccc21 (centres unmarked) [BC9] | A (50-100)
41 | O=C(NCc1ccc(Cl)nc1)c1ccc(/C=C/C(c2cc(Cl)cc(Cl)c2)C(F)(F)F)cc1F (centres unmarked) [AC49] | A (50-100)
42 | CC(=O)NCc1ccc(/C=C/C(c2cc(Cl)cc(Cl)c2)C(F)(F)F)cc1Cl (centres unmarked) [CC7, (E)-N-(2-Chloro-4-(3-(3,5-dichlorophenyl)-4,4,4-trifluorobut-1-en-1-yl)benzyl)acetamide] | A (50-100)
43 | O=C(NCc1ccc(/C=C/C(c2cc(Cl)c(F)c(Cl)c2)C(F)(F)F)cc1Cl)C1CC1 (centres unmarked) [CC15] | A (50-100)
44 | CCc1cc(/C=C/C(c2cc(Cl)c(F)c(Cl)c2)C(F)(F)F)ccc1C(=O)NCC(=O)NCC(F)(F)F (centres unmarked) [AC80] | A (50-100)
